According to US20260014204A1, “STEM CELL-DRUG CARRIER COMPRISING MELATONIN-CONTAINING DRUG CARRIER AND STEM CELL AND USES THEREOF” (priority 2024, published 2026):

Test system: small intestine epithelial organoids
Test: Flow cytometry of Ly6a-expressing cells, comparison by drug type
Format: cell-based
Conditions: drug applied together with stem cells (summary statement)
Description: In the art, quercetin is known as a therapeutic agent for inflammatory bowel disease. Accordingly, in Example 4, the revival stem cell induction ability of heterospheroids (hereinafter referred to as ‘Mel-HS’) including melatonin microspheres and 3D mesenchymal stem cells prepared in Example 1-1; and heterospheroids (hereinafter referred to as ‘Q-HS’) including quercetin microspheres and 3D mesenchymal stem cells was compared. The Q-HS was prepared by the same method as Example 1-1, but using quercetin instead of melatonin. Mel-HS was treated in small intestine epithelial organoids and then co-cultured for 48 hours. After culturing, cells expressing a revival stem cell marker Ly6a of the small intestine epithelial organoids were analyzed by flow cytometry. In addition, a Q-HS-treated group was also performed in the same manner as described above. As a control group for the experiment, 2D mesenchymal stem cells (2D) or 3D mesenchymal stem cells (3D) were treated. The flow cytometry results of the Mel-HS-treated group were shown in FIG. 4A, and the flow cytometry results of the Q-HS-treated group were shown in FIG. 4B.

Structure (SMILES)	induction of revival stem cells
COc1ccc2[nH]cc(CCNC(C)=O)c2c1 [melatonin]	induced revival stem cells
O=c1c(O)c(-c2ccc(O)c(O)c2)oc2cc(O)cc(O)c12 [quercetin]	no significant effect
